pKi: −log10 of the molar value. “And” between values parts separate entries of the source, which are not always exact repeats. Equal values may be shown once.
Tests used:
[1] = system: Mus musculus; assay: Synergic sedative effect was tested in mice using the Hole Board test at peroral dose of 10 mg/kg, value was expressed in holes; format: functional; details: route oral
[2] = system: Mus musculus; assay: Percent anticonvulsant activity against PTZ induced attack in mice at dose of 10 mg/kg; format: functional
[3] = system: Mus musculus; assay: Antianxiety activity was tested in mice at dose of 30 mg/kg using light/dark box test; format: functional
[4] = target: GABA A receptor alpha-3/beta-2/gamma-2 (Rattus norvegicus, UniProt P18508+P20236+P63138); assay: Binding affinity for recombinant rat GABA-A receptor alpha-3-beta-2-gamma-2 subunits expressed in HEK293 cells; format: cell-based
[5] = target: GABA-A receptor; anion channel; assay: Inhibition of [3H]Ro-151788 binding to GABA-A central benzodiazepine receptor of bovine brain membranes; format: cell membranes, Bos taurus
[6] = system: Mus musculus; assay: Muscle relaxant effect in mice at dose of 30 mg/kg using rotarod test, value was expressed as no. of falls in 30 seconds; format: functional
[7] = target: T1, GABA-A receptor; anion channel (Bos taurus) (UniProt P10063+P08220+P20237+P08219+P10064+P22300); assay: Relative binding to GABA-A receptor in the presence and absence of GABA (GABA shift), Ki(-GABA)/Ki(+GABA); format: protein-complex assay
[8] = system: Mus musculus; assay: Percent anticonvulsant activity against PTZ induced attack in mice at dose of 30 mg/kg; format: functional
[9] = target: T2, GABA A receptor alpha-2/beta-2/gamma-2 (Rattus norvegicus, UniProt P18508+P23576+P63138); assay: Binding affinity for recombinant rat GABA-A receptor alpha-2-beta-2-gamma-2 subunits expressed in HEK293 cells; format: cell-based
[10] = target: GABA-A receptor; alpha-1/beta-2/gamma-2 (Rattus norvegicus, UniProt P18508+P62813+P63138); assay: Binding affinity for recombinant rat GABA-A receptor alpha-1-beta-2-gamma-2 subunits expressed in HEK293 cells; format: cell-based
[11] = system: Mus musculus; assay: Antianxiety activity was tested in mice at dose of 10 mg/kg in light; format: functional
[12] = system: Mus musculus; assay: Synergic sedative effect was tested in mice using the Hole Board test at peroral dose of 10 mg/kg, value was expressed in plane; format: functional; details: route oral
[13] = system: Mus musculus; assay: Antianxiety activity was tested in mice at dose of 30 mg/kg in light; format: functional
[14] = target: GABA A receptor alpha-5/beta-3/gamma-2 (Rattus norvegicus, UniProt P18508+P19969+P63079); assay: Binding affinity for recombinant rat GABA-A receptor alpha-5-beta-3-gamma-2 subunits expressed in HEK 293 cells; format: cell-based, HEK293
[15] = system: Mus musculus; assay: Antianxiety activity was tested in mice at dose of 10 mg/kg using light/dark box test; format: functional
[16] = target: T1, GABA-A receptor; anion channel (Bos taurus); assay: Percent inhibition of [3H]Ro-151788 binding to bovine brain GABA-A central benzodiazepine receptor at 0.2 nM
[17] = system: Mus musculus; assay: Muscle relaxant effect in mice at dose of 10 mg/kg using rotarod test, value was expressed as no. of falls in 30 seconds; format: functional
[18] = system: Mus musculus; assay: Antianxiety activity was tested in mice at peroral dose of 1 mg/kg using light/dark box test; format: functional; details: route oral
[19] = system: Mus musculus; assay: Muscle relaxant effect in mice at peroral dose of 0.3 mg/kg using rotarod test, value was expressed as no. of falls in 30 seconds; format: functional; details: route oral
[20] = system: Mus musculus; assay: Muscle relaxant effect in mice at peroral dose of 1 mg/kg using rotarod test, value was expressed as no. of falls in 30 seconds; format: functional; details: route oral
[21] = system: Mus musculus; assay: Antianxiety activity was tested in mice at peroral dose of 0.3 mg/kg in light; format: functional; details: route oral
[22] = system: Mus musculus; assay: Antianxiety activity was tested in mice at peroral dose of 1 mg/kg in light; format: functional; details: route oral
[23] = system: Mus musculus; assay: Antianxiety activity was tested in mice at peroral dose of 0.3 mg/kg using light/dark box test; format: functional; details: route oral
[24] = system: Mus musculus; assay: Synergic sedative effect was tested in mice using the Hole Board test at peroral dose of 30 mg/kg, value was expressed in holes; format: functional; details: route oral
[25] = system: Mus musculus; assay: Synergic sedative effect was tested in mice using the Hole Board test at peroral dose of 30 mg/kg, value was expressed in plane; format: functional; details: route oral
[26] = system: Mus musculus; assay: Synergic sedative effect was tested in mice using the Hole Board test at peroral dose of 3 mg/kg, value was expressed in plane; format: functional; details: route oral
[27] = system: Mus musculus; assay: Percent anticonvulsant activity against PTZ induced attack in mice at dose of 3 mg/kg; format: functional
[28] = system: Mus musculus; assay: Synergic sedative effect was tested in mice using the Hole Board test at peroral dose of 3 mg/kg, value was expressed in holes; format: functional; details: route oral
[29] = system: Mus musculus; assay: Muscle relaxant effect in mice at dose of 3 mg/kg using rotarod test, value was expressed as no. of falls in 30 seconds; format: functional
[30] = target: T2, GABA A receptor alpha-2/beta-2/gamma-2; assay: Binding affinity for recombinant rat alpha-2-beta-2-gamma-2 GABA-A receptor subunits expressed in HEK293 cells; format: cell-based

Chain of GABA A receptor alpha-3/beta-2/gamma-2 (P18508 whole entry): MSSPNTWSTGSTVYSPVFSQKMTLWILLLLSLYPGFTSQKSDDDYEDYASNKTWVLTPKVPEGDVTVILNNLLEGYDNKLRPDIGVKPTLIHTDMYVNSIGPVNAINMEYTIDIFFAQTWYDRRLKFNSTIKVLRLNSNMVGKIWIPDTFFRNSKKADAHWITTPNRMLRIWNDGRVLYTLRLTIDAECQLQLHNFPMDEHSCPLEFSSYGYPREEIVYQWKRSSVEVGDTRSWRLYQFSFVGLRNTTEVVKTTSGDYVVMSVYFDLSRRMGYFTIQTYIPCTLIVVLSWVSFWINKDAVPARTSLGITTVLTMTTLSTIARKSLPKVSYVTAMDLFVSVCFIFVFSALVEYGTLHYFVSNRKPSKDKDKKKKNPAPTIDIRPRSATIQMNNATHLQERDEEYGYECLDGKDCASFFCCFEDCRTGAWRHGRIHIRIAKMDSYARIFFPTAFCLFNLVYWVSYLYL
Chain of GABA A receptor alpha-3/beta-2/gamma-2 (P20236 whole entry): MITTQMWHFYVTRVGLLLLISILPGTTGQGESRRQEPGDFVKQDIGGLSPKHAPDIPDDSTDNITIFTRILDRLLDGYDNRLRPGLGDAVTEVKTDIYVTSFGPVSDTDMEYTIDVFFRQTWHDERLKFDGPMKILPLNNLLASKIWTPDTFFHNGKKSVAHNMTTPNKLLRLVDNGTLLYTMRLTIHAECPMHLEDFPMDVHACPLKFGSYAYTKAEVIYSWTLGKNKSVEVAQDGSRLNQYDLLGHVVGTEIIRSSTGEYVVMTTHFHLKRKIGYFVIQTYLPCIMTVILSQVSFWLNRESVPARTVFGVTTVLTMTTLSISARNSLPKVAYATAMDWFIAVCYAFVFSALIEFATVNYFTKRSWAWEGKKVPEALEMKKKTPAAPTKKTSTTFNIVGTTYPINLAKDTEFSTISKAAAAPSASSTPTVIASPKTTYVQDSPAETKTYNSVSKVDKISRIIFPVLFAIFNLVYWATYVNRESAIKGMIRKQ
Chain of GABA A receptor alpha-3/beta-2/gamma-2 (P63138 whole entry): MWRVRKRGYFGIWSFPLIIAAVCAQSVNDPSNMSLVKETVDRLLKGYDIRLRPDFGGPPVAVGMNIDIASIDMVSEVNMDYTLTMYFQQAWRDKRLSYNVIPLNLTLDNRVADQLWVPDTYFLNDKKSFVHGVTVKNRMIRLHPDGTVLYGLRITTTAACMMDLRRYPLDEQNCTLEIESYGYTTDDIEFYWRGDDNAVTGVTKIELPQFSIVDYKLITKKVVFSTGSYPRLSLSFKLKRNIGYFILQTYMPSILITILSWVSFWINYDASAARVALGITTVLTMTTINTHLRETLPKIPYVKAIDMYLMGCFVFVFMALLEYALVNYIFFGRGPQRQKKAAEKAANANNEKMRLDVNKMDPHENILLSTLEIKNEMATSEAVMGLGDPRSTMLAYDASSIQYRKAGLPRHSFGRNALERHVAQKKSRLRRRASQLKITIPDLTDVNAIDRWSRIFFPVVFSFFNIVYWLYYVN
Chain of GABA-A receptor; alpha-1/beta-2/gamma-2 (P18508 whole entry): as the sequence (P18508 whole entry) above
Chain of GABA-A receptor; alpha-1/beta-2/gamma-2 (P62813 whole entry): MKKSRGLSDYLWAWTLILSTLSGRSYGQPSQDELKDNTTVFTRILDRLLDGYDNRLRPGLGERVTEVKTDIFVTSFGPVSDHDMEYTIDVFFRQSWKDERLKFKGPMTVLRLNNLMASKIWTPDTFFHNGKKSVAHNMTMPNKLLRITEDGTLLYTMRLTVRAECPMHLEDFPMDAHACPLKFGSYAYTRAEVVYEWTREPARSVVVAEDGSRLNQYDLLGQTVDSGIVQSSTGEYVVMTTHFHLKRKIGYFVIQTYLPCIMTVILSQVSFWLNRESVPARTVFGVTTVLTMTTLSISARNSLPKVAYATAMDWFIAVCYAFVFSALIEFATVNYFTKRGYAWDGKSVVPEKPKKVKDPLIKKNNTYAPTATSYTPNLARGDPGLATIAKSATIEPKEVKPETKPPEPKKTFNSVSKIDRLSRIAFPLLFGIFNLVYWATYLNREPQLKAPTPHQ
Chain of GABA-A receptor; alpha-1/beta-2/gamma-2 (P63138 whole entry): as the sequence (P63138 whole entry) above
T2 sequence (P18508 whole entry): as the sequence (P18508 whole entry) above
T2 sequence (P23576 whole entry): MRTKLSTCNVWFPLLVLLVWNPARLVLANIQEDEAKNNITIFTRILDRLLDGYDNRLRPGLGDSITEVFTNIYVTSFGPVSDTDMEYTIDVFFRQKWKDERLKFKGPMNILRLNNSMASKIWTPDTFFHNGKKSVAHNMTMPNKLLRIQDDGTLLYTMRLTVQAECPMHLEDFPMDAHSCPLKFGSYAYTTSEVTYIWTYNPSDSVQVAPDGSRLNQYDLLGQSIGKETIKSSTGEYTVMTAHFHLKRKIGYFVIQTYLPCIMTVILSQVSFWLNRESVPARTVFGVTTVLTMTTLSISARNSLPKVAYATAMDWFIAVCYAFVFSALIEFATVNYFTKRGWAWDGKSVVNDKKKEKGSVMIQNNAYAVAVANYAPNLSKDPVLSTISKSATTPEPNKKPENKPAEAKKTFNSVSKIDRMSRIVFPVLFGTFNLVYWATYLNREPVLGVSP
T2 sequence (P63138 whole entry): as the sequence (P63138 whole entry) above
Chain of GABA A receptor alpha-5/beta-3/gamma-2 (P18508 whole entry): as the sequence (P18508 whole entry) above
Chain of GABA A receptor alpha-5/beta-3/gamma-2 (P19969 whole entry): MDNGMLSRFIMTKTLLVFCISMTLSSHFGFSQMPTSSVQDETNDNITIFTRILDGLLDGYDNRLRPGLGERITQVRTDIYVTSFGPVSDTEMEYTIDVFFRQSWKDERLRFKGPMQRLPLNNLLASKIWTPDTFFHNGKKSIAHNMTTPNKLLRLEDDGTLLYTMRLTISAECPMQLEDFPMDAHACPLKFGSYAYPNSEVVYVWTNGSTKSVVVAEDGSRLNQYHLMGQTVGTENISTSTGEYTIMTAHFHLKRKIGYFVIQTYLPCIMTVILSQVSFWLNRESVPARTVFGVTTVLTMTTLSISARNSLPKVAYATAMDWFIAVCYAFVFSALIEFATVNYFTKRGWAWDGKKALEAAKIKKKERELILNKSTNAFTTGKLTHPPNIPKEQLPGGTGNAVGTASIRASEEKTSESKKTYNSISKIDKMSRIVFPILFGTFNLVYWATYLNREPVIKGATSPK
Chain of GABA A receptor alpha-5/beta-3/gamma-2 (P63079 whole entry): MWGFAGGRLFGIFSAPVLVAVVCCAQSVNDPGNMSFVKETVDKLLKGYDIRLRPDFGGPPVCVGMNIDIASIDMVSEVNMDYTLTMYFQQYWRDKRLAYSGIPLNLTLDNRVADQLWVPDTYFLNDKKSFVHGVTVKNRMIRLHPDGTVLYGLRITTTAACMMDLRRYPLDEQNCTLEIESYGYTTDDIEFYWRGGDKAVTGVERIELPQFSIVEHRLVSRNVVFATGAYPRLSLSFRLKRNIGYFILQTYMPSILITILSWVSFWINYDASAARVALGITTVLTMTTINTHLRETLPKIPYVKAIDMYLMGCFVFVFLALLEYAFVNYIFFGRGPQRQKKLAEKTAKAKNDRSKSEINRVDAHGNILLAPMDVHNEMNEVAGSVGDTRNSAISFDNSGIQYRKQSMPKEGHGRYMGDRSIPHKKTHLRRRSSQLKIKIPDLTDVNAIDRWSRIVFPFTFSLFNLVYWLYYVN

Structure (SMILES)	Activity [2]	pKi [5]	Ratio [7]	pKi [9]	pKi [10]	pKi [14]	inhibition [16]	No. of falls [17]	also measured
Oc1c(-c2ccsc2)cnc2c(-c3ccsc3)cnn12	36.4%	7.80	1.3	6.70	7.64	6.65	100%	0	No. of counts [1]: 52.7; No. of crosses [3]: 11.8; pKi [4]: 6.71; No. of falls [6]: 0.3; Activity [8]: 9.1%; Time [11]: 94.9 s; No. of counts [12]: 12.2; Time [13]: 72.3 s; No. of crosses [15]: 19.7
Oc1c(-c2ccsc2)cnc2c(-c3cccnc3)cnn12	–	7.52	1.51	6.50	7.60	6.68	100%	–	–
Oc1c(-c2ccsc2)cnc2c(-c3ccc4ccccc4c3)cnn12	–	–	–	–	–	–	30%	–	–
CN1C(=O)CN=C(c2ccccc2)c2cc(Cl)ccc21 [DIAZEPAM]	–	–	–	–	–	–	–	–	No. of crosses [18]: 21.5; No. of falls [19]: 0.5; No. of falls [20]: 0.7; Time [21]: 85 s; Time [22]: 117.5 s; No. of crosses [23]: 22
Oc1c(-c2ccsc2)cnc2c(Cc3ccccc3)cnn12	–	–	–	–	–	–	55%	–	–
Cc1ccc(-c2nc3ccc(C)cn3c2CC(=O)N(C)C)cc1.Oc1c(-c2ccsc2)cnc2c(-c3ccccn3)cnn12	90%	–	–	–	–	–	–	1.1	No. of counts ([1]; 10 mg/kg): 25.8 and 9.38; No. of counts ([12]; 10 mg/kg): 68 and 28.7
Cc1cccc(-c2cnn3c(O)c(-c4ccsc4)cnc23)c1	–	7.59	2	–	–	–	97%	–	–
Oc1c(-c2ccsc2)cnc2c(-c3ccccn3)cnn12	19%	8.41	1.1	6.03	8.15	6.13	98%	0.3	No. of counts [1]: 55.9; No. of falls [6]: 0.3; Activity [8]: 10%; No. of counts [24]: 50.9; No. of counts [25]: 110.4; Time [11]: 90.6 s; No. of counts [12]: 96.6; No. of crosses [15]: 19.6
Oc1c(-c2ccsc2)cnc2c(-c3ccccc3)cnn12	–	6.95	1.71	–	–	–	94%	–	–
Cc1ccc(-c2nc3ccc(C)cn3c2CC(=O)N(C)C)cc1 [ZOLPIDEM]	90%	–	–	–	–	–	–	0.8	No. of counts [1]: 26.3; No. of counts [26]: 84.7; Activity [27]: 70%; No. of counts [28]: 45; No. of counts [12]: 54.4; No. of falls [29]: 0.2
Oc1c(-c2ccsc2)cnc2c(-c3ccc(F)cc3)cnn12	–	7.51	0.9	–	–	–	99%	–	–
Oc1c(-c2ccsc2)cnc2c(-c3cccc(Br)c3)cnn12	–	8.06	1.72	6.54	8.00	7.66	87%	–	pKi [4]: 6.95
Oc1c(-c2ccsc2)cnc2c(-c3cccc4ccccc34)cnn12	–	7.40	1.02	< 5.00	7.33	6.81	92%	–	–
COc1cccc(-c2cnn3c(O)c(-c4ccsc4)cnc23)c1	–	7.37	1.25	–	7.37	6.13	92%	–	pKi [30]: 6.08
Oc1c(-c2ccsc2)cnc2c(-c3cccc(F)c3)cnn12	–	7.14	1.2	–	–	–	92%	–	–
CN1C(=O)CN=C(c2ccccc2)c2cc(Cl)ccc21.Oc1c(-c2ccsc2)cnc2c(-c3ccccn3)cnn12	90%	–	–	–	–	–	–	0.5	No. of counts [1]: 25.8; Time [11]: 120.9 s; No. of counts [12]: 68; No. of crosses [15]: 26.2
Oc1c(-c2ccsc2)cnc2c(-c3cccc(C(F)(F)F)c3)cnn12	29.4%	8.24	2	6.27	8.00	6.68	96%	0.1	No. of counts [1]: 60.7; No. of crosses [3]: 12.7; pKi [4]: 7.05; No. of falls [6]: 0.2; Activity [8]: 0%; Time [11]: 69.4 s; No. of counts [12]: 139.6; Time [13]: 77.3 s; No. of crosses [15]: 17.1

Reference: ChEMBL document CHEMBL1145105, “Synthesis and benzodiazepine receptor affinity of pyrazolo[1,5-a]pyrimidine derivatives. 3. New 6-(3-thienyl) series as alpha 1 selective ligands” (J Med Chem, 2003)
